Reference: BindingDB's records for doi:10.1021/jm00164a014 (Wellcome Research Laboratories, 1990)

Assays:
[1] = biological target: Trifunctional purine biosynthetic protein adenosine-3 (Mus musculus) (UniProt Q64737); assay: Inhibition activity against Glycinamide ribonucleotide transformylase (GAR-TFase) from L cell
[2] = biological target: ATIC (Sus scrofa); assay: Inhibition activity against AICAR formyltransferase from hog liver

Sequence of Trifunctional purine biosynthetic protein adenosine-3 (Mus musculus) (Q64737 whole entry, looked up): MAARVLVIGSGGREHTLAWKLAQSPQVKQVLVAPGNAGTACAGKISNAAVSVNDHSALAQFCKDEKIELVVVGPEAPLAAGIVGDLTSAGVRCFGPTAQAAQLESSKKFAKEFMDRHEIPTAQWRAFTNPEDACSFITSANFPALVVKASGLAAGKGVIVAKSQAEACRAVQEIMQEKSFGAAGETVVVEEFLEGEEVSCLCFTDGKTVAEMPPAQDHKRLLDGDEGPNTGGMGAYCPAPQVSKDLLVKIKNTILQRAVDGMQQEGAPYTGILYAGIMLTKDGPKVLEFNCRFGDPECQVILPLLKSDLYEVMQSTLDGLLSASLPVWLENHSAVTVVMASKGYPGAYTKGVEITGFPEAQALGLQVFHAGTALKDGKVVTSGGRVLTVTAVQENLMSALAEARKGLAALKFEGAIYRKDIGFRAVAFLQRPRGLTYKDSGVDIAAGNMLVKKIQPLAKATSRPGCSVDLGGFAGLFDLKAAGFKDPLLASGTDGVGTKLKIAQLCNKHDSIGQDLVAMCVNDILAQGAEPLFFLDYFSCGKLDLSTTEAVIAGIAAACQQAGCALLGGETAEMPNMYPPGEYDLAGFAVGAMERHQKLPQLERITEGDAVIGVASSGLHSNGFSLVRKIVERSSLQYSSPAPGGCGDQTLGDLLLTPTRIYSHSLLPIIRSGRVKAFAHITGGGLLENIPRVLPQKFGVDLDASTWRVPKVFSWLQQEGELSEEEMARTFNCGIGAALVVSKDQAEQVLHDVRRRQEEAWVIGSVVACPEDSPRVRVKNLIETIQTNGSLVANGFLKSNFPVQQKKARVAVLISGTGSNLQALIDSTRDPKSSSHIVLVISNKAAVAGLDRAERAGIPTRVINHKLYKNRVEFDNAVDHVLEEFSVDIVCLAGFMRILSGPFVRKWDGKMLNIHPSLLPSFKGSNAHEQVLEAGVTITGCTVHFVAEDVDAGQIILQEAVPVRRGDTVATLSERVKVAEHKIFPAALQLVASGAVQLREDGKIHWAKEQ

IC50 [1]: 4.3 µM
IC50 [2]: 68 µM
Compound: CN(CCCc1c(N)nc(N)[nH]c1=O)c1ccc(C(=O)NC(CCC(=O)O)C(=O)O)cc1 (configuration not stated)
